In US20100298602A1, “SYSTEMS AND METHODS FOR MICROFLUIDIC CRYSTALLIZATION” (Massachusetts Institute of Technology, priority 2009, published 2010):

Assay: Seeded continuous crystallization in a microfluidic device; growth rates from optical images
Details: room temperature, water/ethanol antisolvent
[1] = Supersaturation S = ln(C/Cs,γ) = 0.319

## NCC(=O)O [γ-Glycine, glycine]
[1]
  G<00-1>,exp growth rate: 4.4 ± 1.8 μm/min
  G{100, 010},exp growth rate: 3.2 ± 1.6 μm/min
Supersaturation S = ln(C/Cs,γ) = 0.389
  G{100, 010},exp growth rate: 5.5 ± 1.6 μm/min

## NCC(=O)O [α-Glycine, glycine]
S = ln(C/Cs,α) = 0.33
  G<010>,exp growth rate of <010> crystal plane: 0.40 ± 0.25 μm/min
  G<011>, exp growth rate of <011> crystal plane: 2.22 ± 0.91 μm/min
S = ln(C/Cs,α) = 0.56
  G<010>,exp growth rate of <010> crystal plane: 0.74 ± 0.16 μm/min
  G<011>, exp growth rate of <011> crystal plane: 3.34 ± 0.43 μm/min
S = ln(C/Cs,α) = 0.64
  G<010>,exp growth rate of <010> crystal plane: 0.66 ± 0.23 μm/min
  G<011>, exp growth rate of <011> crystal plane: 4.78 ± 1.35 μm/min

## NCC(=O)O [β-Glycine, glycine]
S = ln(C/Cs,α) = 0.30
  G<010> experimental growth rate: 194 ± 55 μm/min
S = ln(C/Cs,α) = 0.39
  G<010> experimental growth rate: 235 ± 43 μm/min
S = ln(C/Cs,α) = 0.47
  G<010> experimental growth rate: 250 ± 52 μm/min
